According to patent publication US9394371B2, “Antibody-mediated disruption of quorum sensing in bacteria” (The Scripps Research Institute, priority 2007, dated 2016):

Test system: S. aureus RN4850
Type: cell-based

YSTCYFIM (SEQ ID NO: 123) (thiolactone cyclisation; listed as Staphylococcus aureus) [AIP-4, native S. aureus group IV autoinducing peptide, synthesized, reference compound]
α-hemolysin expression after adding synthetic AIP-4 to AP4-24H11: fully restored expression of α-hemolysin
